# Experimental data reported in PubChem BioAssay AID330 (DTP/NCI, 2004).
# Several values for one entry are separate records, joined by “and”; a condition that tells them apart may be missing. Identical values can stand only once. Toxic doses and inconclusive results are not listed.
# Tested on: P388 leukemia ip, CD2F1 mice, survival T/C
# Test: NCI In Vivo Anticancer Drug Screen. Data for tumor model P388 Leukemia (intraperitoneal) in CD2F1 (CDF1) mice
# Conditions: endpoint: median survival time, higher = longer survival
# Method in brief: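 Mice carrying the transplanted tumor received test compound or vehicle. Survival was recorded in each group, and the value is the treated-group measurement divided by that of the vehicle-treated control group.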
# [1] = dose: 100.0 mg/kg/injection, schedule: Q01DX009 (ip), vehicle: saline
# [2] = dose: 200.0 mg/kg/injection, schedule: Q01DX009 (ip), vehicle: saline
# [3] = dose: 50.0 mg/kg/injection, schedule: Q01DX005 (ip), vehicle: Klucel (hydroxypropylcellulose) (HPC)
# [4] = dose: 100.0 mg/kg/injection, schedule: Q01DX005 (ip), vehicle: Klucel (hydroxypropylcellulose) (HPC)
# [5] = dose: 50.0 mg/kg/injection, schedule: Q01DX009 (ip), vehicle: saline
structure (smiles),measurement,setting,value
COC1=C(N)C(=O)c2ncccc2C1=O,T/C,"dose: 3.12 mg/kg/injection, schedule: Q01DX009 (ip), vehicle: saline with Tween-80",101 % of control
same,T/C,"dose: 4.0 mg/kg/injection, schedule: Q01DX009 (ip), vehicle: DMSO",100 % of control
same,T/C,"dose: 6.25 mg/kg/injection, schedule: Q01DX009 (ip), vehicle: saline with Tween-80",95 % of control
same,T/C,"dose: 8.0 mg/kg/injection, schedule: Q01DX009 (ip), vehicle: DMSO",108 % of control
same,T/C,"dose: 12.5 mg/kg/injection, schedule: Q01DX009 (ip), vehicle: saline with Tween-80",94 % of control
same,T/C,"dose: 16.0 mg/kg/injection, schedule: Q01DX009 (ip), vehicle: DMSO",102 % of control
O=C(O)Cn1nnc2ccccc21,T/C,[1],101 % of control
same,T/C,[2],96 % of control
[Cl][Pt+2][Cl].[NH-]CCC[NH-],T/C,"dose: 6.25 mg/kg/injection, schedule: Q04DX002 (ip), vehicle: saline",178 % of control
same,T/C,"dose: 12.5 mg/kg/injection, schedule: Q04DX002 (ip), vehicle: saline",183 % of control
CC(Br)C(C)(C)OO (stereo unspecified),T/C,"dose: 100.0 mg/kg/injection, schedule: Q01DX001 (ip), vehicle: Klucel (hydroxypropylcellulose) (HPC)",101 % of control
same,T/C,"dose: 200.0 mg/kg/injection, schedule: Q01DX001 (ip), vehicle: Klucel (hydroxypropylcellulose) (HPC)",95 % of control
same,T/C,"dose: 400.0 mg/kg/injection, schedule: Q01DX001 (ip), vehicle: Klucel (hydroxypropylcellulose) (HPC)",100 % of control
NC(=S)c1cccc(OCCCOc2ccccc2)c1,T/C,[3],96 % of control
same,T/C,[4],91 % of control
O=C1CSC(=S)N1c1ccc(N=Nc2ccccc2)cc1,T/C,[5],98 % of control
same,T/C,[1],99 % of control
same,T/C,[2],86 % of control
C=C(C)C(=O)OC1CCCC2C(=C)C(=O)OC12 (stereo unspecified),T/C,"dose: 60.0 mg/kg/injection, schedule: Q01DX005 (ip), vehicle: Klucel (hydroxypropylcellulose) (HPC)",105 % of control
same,T/C,"dose: 120.0 mg/kg/injection, schedule: Q01DX005 (ip), vehicle: Klucel (hydroxypropylcellulose) (HPC)",100 % of control
same,T/C,"dose: 240.0 mg/kg/injection, schedule: Q01DX005 (ip), vehicle: Klucel (hydroxypropylcellulose) (HPC)",107 % of control
Cc1nc2c(ncn2C2OC(CO)C(O)C2O)c(=O)[nH]1 (stereo unspecified),T/C,"dose: 50.0 mg/kg/injection, schedule: Q04DX003 (ip), vehicle: saline with Tween-80",96 % of control
same,T/C,"dose: 100.0 mg/kg/injection, schedule: Q04DX003 (ip), vehicle: saline with Tween-80",101 % of control
same,T/C,"dose: 200.0 mg/kg/injection, schedule: Q04DX003 (ip), vehicle: saline with Tween-80",109 % of control
same,T/C,"dose: 400.0 mg/kg/injection, schedule: Q04DX003 (ip), vehicle: saline with Tween-80",111 % of control
CCCCCCCCCCCCCC(=O)OC1C(C)C2(O)C(C=C(CO)CC3(O)C(O)C(C)=CC32)C2C(C)(C)C12OC(C)=O (stereo unspecified),T/C,"dose: 0.12 mg/kg/injection, schedule: Q01DX009 (ip), vehicle: saline",106 % of control
same,T/C,"dose: 0.25 mg/kg/injection, schedule: Q01DX009 (ip), vehicle: saline",101 % of control
same,T/C,"dose: 0.5 mg/kg/injection, schedule: Q01DX009 (ip), vehicle: saline",111 % of control
same,T/C,"dose: 1.0 mg/kg/injection, schedule: Q01DX009 (ip), vehicle: saline",99 % of control
same,T/C,"dose: 2.0 mg/kg/injection, schedule: Q01DX009 (ip), vehicle: saline",101 % of control
O=C(O)c1cc(Br)no1,T/C,[5],95 % of control
same,T/C,[1],90 % of control
same,T/C,[2],89 % of control
COc1cccc2[se]c(C(=O)O)cc12,T/C,[5],92 % of control
same,T/C,[1],89 % of control
O=C(NO)C1CCCCC12OCCO2 (stereo unspecified),T/C,"dose: 100.0 mg/kg/injection, schedule: Q04DX002 (ip), vehicle: saline",98 % of control
same,T/C,"dose: 200.0 mg/kg/injection, schedule: Q04DX002 (ip), vehicle: saline",101 % of control
same,T/C,"dose: 400.0 mg/kg/injection, schedule: Q04DX002 (ip), vehicle: saline",101 % of control
CCCCCCCCCCCCCCCCCSCc1ccc(Nc2ccccc2)cc1,T/C,"dose: 25.0 mg/kg/injection, schedule: Q01DX009 (ip), vehicle: saline with Tween-80",108 % of control
same,T/C,"dose: 50.0 mg/kg/injection, schedule: Q01DX009 (ip), vehicle: other",116 % of control
same,T/C,"dose: 50.0 mg/kg/injection, schedule: Q01DX009 (ip), vehicle: saline with Tween-80",103 % of control and 108 % of control
same,T/C,"dose: 100.0 mg/kg/injection, schedule: Q01DX009 (ip), vehicle: other",116 % of control
same,T/C,"dose: 100.0 mg/kg/injection, schedule: Q01DX009 (ip), vehicle: saline with Tween-80",103 % of control
same,T/C,"dose: 200.0 mg/kg/injection, schedule: Q01DX009 (ip), vehicle: other",118 % of control
same,T/C,"dose: 200.0 mg/kg/injection, schedule: Q01DX009 (ip), vehicle: saline with Tween-80",116 % of control and 93 % of control
CCCC(NC(=O)C(C)NC(=O)OCc1ccccc1)C(=O)O (stereo unspecified),T/C,[3],98 % of control
same,T/C,[4],96 % of control
same,T/C,"dose: 200.0 mg/kg/injection, schedule: Q01DX005 (ip), vehicle: Klucel (hydroxypropylcellulose) (HPC)",96 % of control
CCC1(CC)OC(=O)C1Cl (stereo unspecified),T/C,"dose: 50.0 mg/kg/injection, schedule: Q01DX005 (ip), vehicle: saline with Tween-80",98 % of control
same,T/C,"dose: 100.0 mg/kg/injection, schedule: Q01DX005 (ip), vehicle: saline with Tween-80",113 % of control
same,T/C,"dose: 200.0 mg/kg/injection, schedule: Q01DX005 (ip), vehicle: saline with Tween-80",118 % of control
